From US9708311B2, “Benzimidazole derivatives as EP4 antagonists” (BAYER PHARMA AKTIENGESELLSCHAFT, priority 2012, dated 2017)

Each compound was assayed against human EP4 receptor (Homo sapiens (Human), UniProt P35408) (assay: Test for antagonism of the human EP4 receptor signal (cAMP HTRF)). Conditions: cells expressing hEP4, PGE2 at EC80 (0.4 nM), cAMP TR-FRET; read-out: Antagonism hEP4 IC50.
Assay type: cell-based
Source text: The binding of the agonist prostaglandin E2 (PGE2) to the EP4 subtype of human hPGE2-R (hEP4-R) induces the activation of membrane-bound adenylate cyclases and thus the formation of cAMP. In the presence of the phosphodiesterase inhibitor IBMX, this cAMP accumulates intracellularly and is employed in a competitive detection procedure after cell lysis. In this procedure, it competes with a fluorescence-labelled cAMP (cAMP-d2) for binding to an Eu cryptate-labelled anti-cAMP antibody. In the absence of cellular cAMP, a complex is formed between the Eu cryptate-labelled anti-cAMP antibody and the cAMP-d2 molecule, which after excitation at 337 nm makes possible an energy transfer based on FRET (fluorescence resonance energy transfer) to the cAMP-d2 tracer and leads to a long-lasting fluorescence signal (emission at 665 and 620 nm). This signal is time-resolved, i.e. measured in a suitable measuring apparatus after decay of the background fluorescence (time resolved; TR-FRET). The wave ratio determination (emission 665 nm/emission 620 nm*10000) moreover makes it possible to standardize individual measurement differences in the added amounts of the detection reagents.
By means of prostaglandin E2 administration and increase in the intracellular cAMP, a lowering of the FRET signal occurs, which in the case of an antagonistic substance action increases again.
A further 20 min at room temperature later, the cell lysate is measured according to the manufacturer's instructions in a TR-FRET-suitable measuring apparatus (compare cAMP HTRF assay kit: Cisbio International 62AM6PEJ high range)

Sequence of human EP4 receptor (P35408 whole entry): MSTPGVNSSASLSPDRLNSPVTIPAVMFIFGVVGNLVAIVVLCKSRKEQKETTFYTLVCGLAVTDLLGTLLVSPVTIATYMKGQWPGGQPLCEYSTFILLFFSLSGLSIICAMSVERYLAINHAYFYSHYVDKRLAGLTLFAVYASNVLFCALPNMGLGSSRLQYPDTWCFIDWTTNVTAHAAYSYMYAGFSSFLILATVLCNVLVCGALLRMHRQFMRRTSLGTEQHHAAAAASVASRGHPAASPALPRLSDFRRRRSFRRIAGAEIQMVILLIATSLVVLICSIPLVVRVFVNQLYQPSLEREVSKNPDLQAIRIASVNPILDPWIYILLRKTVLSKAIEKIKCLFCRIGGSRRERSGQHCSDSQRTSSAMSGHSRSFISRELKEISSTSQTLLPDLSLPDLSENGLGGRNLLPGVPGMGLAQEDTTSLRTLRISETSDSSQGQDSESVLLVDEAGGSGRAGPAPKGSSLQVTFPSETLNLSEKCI

Q: `CCn1c2ccccc2c2cc(-c3nc4cc(C(=O)NS(=O)(=O)C5CC5)ccc4n3CCOC)ccc21` [Example 16, N-(Cyclopropylsulphonyl)-2-(9-ethyl-9H-carbazol-3-yl)-1-(2-methoxyethyl)-1H-benzimidazole-5-carboxamide] was tested. Which IC50 did it give?
A: 28.6 nM

Q: `CCn1c2ccccc2c2cc(-c3nc4cc(C(=O)N5CCCC5)ccc4n3CC3CC3)ccc21` [Example 22, [1-(Cyclopropylmethyl)-2-(9-ethyl-9H-carbazol-3-yl)-1H-benzimidazol-5-yl](pyrrolidin-1-yl)methanone] was tested. Which IC50 did it give?
A: 65.7 nM

Q: `CCn1c2ccccc2c2cc(-c3nc4cc(C(=O)O)ccc4n3CC3CC3)ccc21` [Example 6, 1-(Cyclopropylmethyl)-2-(9-ethyl-9H-carbazol-3-yl)-1H-benzimidazole-5-carboxylic acid] was tested. Which IC50 did it give?
A: 14.4 nM

Q: How did the IC50 turn out when `COCCn1c2ccccc2c2cc(-c3nc4cc(C(=O)O)ccc4n3CC3CC3)ccc21` [Example 13, 1-(Cyclopropylmethyl)-2-[9-(2-methoxyethyl)-9H-carbazol-3-yl]-1H-benzimidazole-5-carboxylic acid] was run?
A: 18 nM

Q: `CCn1c2ccccc2c2cc(-c3nc4cc(C(=O)NS(=O)(=O)c5ccccc5OC(F)(F)F)ccc4n3CCOC)ccc21` [Example 54, 2-(9-Ethyl-9H-carbazol-3-yl)-1-(2-methoxyethyl)-N-{[2-(trifluoromethoxy)phenyl]-sulphonyl}-1H-benzimidazole-5-carboxamide] was tested. Which IC50 did it give?
A: 17.6 nM

Q: `CCn1c2ccccc2c2cc(-c3nc4cc(C(=O)NS(=O)(=O)CCc5ccccc5C)ccc4n3CCOC)ccc21` [Example 57, 2-(9-Ethyl-9H-carbazol-3-yl)-1-(2-methoxyethyl)-N-{[2-(2-methylphenyl)ethyl]sulphonyl}-1H-benzimidazole-5-carboxamide] was tested. Which IC50 did it give?
A: 239 nM

Q: For `CCn1c2ccccc2c2cc(-c3nc4cc(C(=O)NS(C)(=O)=O)ccc4n3CCOC)ccc21` [Example 15, 2-(9-Ethyl-9H-carbazol-3-yl)-1-(2-methoxyethyl)-N-(methylsulphonyl)-1H-benzimidazole-5-carboxamide], which IC50 is on record?
A: 23.8 nM

Q: `CCn1c2ccccc2c2cc(-c3nc4cc(C(=O)O)ccc4n3CCN3CCCC3)ccc21` [Example 38, 2-(9-Ethyl-9H-carbazol-3-yl)-1-[2-(pyrrolidin-1-yl)ethyl]-1H-benzimidazole-5-carboxylic acid] was tested. Which IC50 did it give?
A: 742 nM

Q: `CCn1c2ccccc2c2cc(-c3nc4cc(C(=O)NCCN5CCOCC5)ccc4n3CC3CC3)ccc21` [Example 79, 1-(Cyclopropylmethyl)-2-(9-ethyl-9H-carbazol-3-yl)-N-[2-(morpholin-4-yl)ethyl]-1H-benzimidazole-5-carboxamide] was tested. Which IC50 did it give?
A: 106 nM

Q: With `CCn1c2ccccc2c2cc(-c3nc4cc(C(=O)NS(=O)(=O)c5cccc(C)c5)ccc4n3CCOC)ccc21` [Example 47, 2-(9-Ethyl-9H-carbazol-3-yl)-1-(2-methoxyethyl)-N-[(3-methylphenyl)sulphonyl]-1H-benzimidazole-5-carboxamide] as the compound, how does the IC50 read?
A: 25.6 nM

Q: For `CCn1c2ccccc2c2cc(-c3nc4cc(C(=O)O)c(C)cc4n3CCOC)ccc21` [Example 111, 2-(9-Ethyl-9H-carbazol-3-yl)-1-(2-methoxyethyl)-6-methyl-1H-benzimidazole-5-carboxylic acid], which IC50 is on record?
A: 612 nM

Q: With `CCCn1c2ccccc2c2cc(-c3nc4cc(C(=O)O)ccc4n3CC3CC3)ccc21` [Example 120, 1-(Cyclopropylmethyl)-2-(9-propyl-9H-carbazol-3-yl)-1H-benzimidazole-5-carboxylic acid] as the compound, how does the IC50 read?
A: 63 nM

Q: How did the IC50 turn out when `O=C(O)c1ccc2c(c1)nc(-c1ccc3c(c1)c1ccccc1n3CC1CC1)n2CC1CC1` [Example 35, 1-(Cyclopropylmethyl)-2-[9-(cyclopropylmethyl)-9H-carbazol-3-yl]-1H-benzimidazole-5-carboxylic acid] was run?
A: 33.8 nM

Q: For `CCOC(=O)c1ccc2c(c1)nc(-c1ccc3c(c1)c1ccccc1n3CC)n2CCN(C)C` [Example 71, Ethyl-1-[2-(dimethylamino)ethyl]-2-(9-ethyl-9H-carbazol-3-yl)-1H-benzimidazole-5-carboxylate], which IC50 is on record?
A: 872 nM

Q: For `CCn1c2ccccc2c2cc(-c3nc4cc(C(=O)N(C)C)ccc4n3CCOC)ccc21` [Example 83, 2-(9-Ethyl-9H-carbazol-3-yl)-1-(2-methoxyethyl)-N,N-dimethyl-1H-benzimidazole-5-carboxamide], which IC50 is on record?
A: 122 nM

Q: With `CCn1c2ccccc2c2cc(-c3nc4cc(C(=O)O)c(C)cc4n3CC3CC3)ccc21` [Example 110, 1-(Cyclopropylmethyl)-2-(9-ethyl-9H-carbazol-3-yl)-6-methyl-1H-benzimidazole-5-carboxylic acid] as the compound, how does the IC50 read?
A: 1180 nM

Q: For `CCn1c2ccccc2c2cc(-c3nc4cc(C(=O)O)ccc4n3CC3CC3)cnc21` [Example 14, 1-(Cyclopropylmethyl)-2-(9-ethyl-9H-pyrido[2,3-b]indol-3-yl)-1H-benzimidazole-5-carboxylic acid], which IC50 is on record?
A: 33.4 nM

Q: `CCn1c2ccc(OC)cc2c2cc(-c3nc4cc(C(=O)O)ccc4n3CCOC)ccc21` [Example 32, 2-(9-Ethyl-6-methoxy-9H-carbazol-3-yl)-1-(2-methoxyethyl)-1H-benzimidazole-5-carboxylic acid] was tested. Which IC50 did it give?
A: 27.4 nM

Q: With `CCn1c2ccccc2c2cc(-c3nc4cc(C(=O)NS(=O)(=O)c5cccc(Cl)c5)ccc4n3CCOC)ccc21` [Example 17, N-[(3-Chlorophenyl)sulphonyl]-2-(9-ethyl-9H-carbazol-3-yl)-1-(2-methoxyethyl)-1H-benzimidazole-5-carboxamide] as the compound, how does the IC50 read?
A: 14.7 nM

Q: For `CCn1c2ccccc2c2cc(-c3nc4cc(S(=O)(=O)NC)ccc4n3C)ccc21` [Example 129, 2-(9-Ethyl-9H-carbazol-3-yl)-N,1-dimethyl-1H-benzimidazole-5-sulphonamide], which IC50 is on record?
A: 944 nM

Q: Which IC50 does the source give for `CCn1c2ccccc2c2cc(-c3nc4cc(C(=O)O)c(OC)cc4n3CC3CC3)ccc21` [Example 102, 1-(Cyclopropylmethyl)-2-(9-ethyl-9H-carbazol-3-yl)-6-methoxy-1H-benzimidazole-5-carboxylic acid] here?
A: 2830 nM

Q: Which IC50 does the source give for `CCn1c2ccccc2c2cc(-c3nc4cc(C(=O)NS(=O)(=O)c5ccccc5C)ccc4n3CCOC)ccc21` [Example 53, 2-(9-Ethyl-9H-carbazol-3-yl)-1-(2-methoxyethyl)-N-[(2-methylphenyl)sulphonyl]-1H-benzimidazole-5-carboxamide] here?
A: 35.3 nM

Q: With `CCn1c2ccccc2c2cc(-c3nc4cc(C(=O)NCCN(C)C)ccc4n3CCOC)ccc21` [Example 86, N-[2-(Dimethylamino)ethyl]-2-(9-ethyl-9H-carbazol-3-yl)-1-(2-methoxyethyl)-1H-benzimidazole-5-carboxamide] as the compound, how does the IC50 read?
A: 245 nM

Q: `CCn1c2ccccc2c2cc(-c3nc4cc(C(=O)O)c(OC)cc4n3CCOC)ccc21` [Example 103, 2-(9-Ethyl-9H-carbazol-3-yl)-6-methoxy-1-(2-methoxyethyl)-1H-benzimidazole-5-carboxylic acid] was tested. Which IC50 did it give?
A: 3110 nM

Q: With `CCn1c2ccccc2c2cc(-c3nc4cc(C(=O)N5CCOCC5)ccc4n3CC3CC3)ccc21` [Example 29, [1-(Cyclopropylmethyl)-2-(9-ethyl-9H-carbazol-3-yl)-1H-benzimidazol-5-yl](morpholin-4-yl)methanone] as the compound, how does the IC50 read?
A: 219 nM

Q: How did the IC50 turn out when `CCn1c2ccccc2c2cc(-c3nc4cc(C(=O)O)ccc4n3CCO)ccc21` [Example 91, 2-(9-Ethyl-9H-carbazol-3-yl)-1-(2-hydroxyethyl)-1H-benzimidazole-5-carboxylic acid] was run?
A: 113 nM

Q: `CCn1c2ccccc2c2cc(-c3nc4cc(C(=O)N(C)S(C)(=O)=O)ccc4n3CCOC)ccc21` [Example 84, 2-(9-Ethyl-9H-carbazol-3-yl)-1-(2-methoxyethyl)-N-methyl-N-(methylsulphonyl)-1H-benzimidazole-5-carboxamide] was tested. Which IC50 did it give?
A: 143 nM

Q: For `CCn1c2ccccc2c2cc(-c3nc4cc(C(=O)NC)ccc4n3CC3CC3)ccc21` [Example 24, 1-(Cyclopropylmethyl)-2-(9-ethyl-9H-carbazol-3-yl)-N-methyl-1H-benzimidazole-5-carboxamide], which IC50 is on record?
A: 338 nM

Q: With `CCn1c2ccccc2c2cc(-c3nc4cc(C(=O)N5CC(O)C5)ccc4n3CC3CC3)ccc21` [Example 23, [1-(Cyclopropylmethyl)-2-(9-ethyl-9H-carbazol-3-yl)-1H-benzimidazol-5-yl](3-hydroxyazetidin-1-yl)methanone] as the compound, how does the IC50 read?
A: 143 nM

Q: With `CCn1c2ccccc2c2cc(-c3nc4cc(C(=O)NS(=O)(=O)c5ccc(C)cc5)ccc4n3CCN(C)C)ccc21` [Example 75, 1-[2-(Dimethylamino)ethyl]-2-(9-ethyl-9H-carbazol-3-yl)-N-[(4-methylphenyl)sulphonyl]-1H-benzimidazole-5-carboxamide] as the compound, how does the IC50 read?
A: 21.4 nM

Q: `CCn1c2ccccc2c2cc(-c3nc4cc(-c5n[nH]c(=O)o5)ccc4n3CCN(C)C)ccc21` [Example 126, 5-{1-[2-(Dimethylamino)ethyl]-2-(9-ethyl-9H-carbazol-3-yl)-1H-benzimidazol-5-yl}-1,3,4-oxadiazol-2(3H)-one] was tested. Which IC50 did it give?
A: 118 nM

Q: With `CCn1c2ccccc2c2cc(-c3nc4cc(C(=O)O)ccc4n3CC3CCCO3)ccc21` (centres unmarked) [Example 133, 2-(9-Ethyl-9H-carbazol-3-yl)-1-(tetrahydrofuran-2-ylmethyl)-1H-benzimidazole-5-carboxylic acid] as the compound, how does the IC50 read?
A: 7 nM
